Like-named read-outs stand apart in the source and are kept apart here.
How the values were obtained:
Type in all cases: binding
FBW7^ARG (RLFBW7) alone = molecular target: T1, FBW7^ARG (RLFBW7) alone (Homo sapiens, UniProt Q969H0, R505L); experiment: Counterscreen 1 ALPHAscreen with FBW7^ARG alone (CSRUN1/DCSRUN1); settings: dose-response counterscreen; for Emax: read-out: RLFBW7 ACT DCSRUN1 Averaged Max % Response
T1 construct: GST (TEV site and flexible linker) (N, cleaved yes); made in house; host or cells: SF9 insect cells (baculovirus)
T1 sequence (Q969H0 64-707 R505L): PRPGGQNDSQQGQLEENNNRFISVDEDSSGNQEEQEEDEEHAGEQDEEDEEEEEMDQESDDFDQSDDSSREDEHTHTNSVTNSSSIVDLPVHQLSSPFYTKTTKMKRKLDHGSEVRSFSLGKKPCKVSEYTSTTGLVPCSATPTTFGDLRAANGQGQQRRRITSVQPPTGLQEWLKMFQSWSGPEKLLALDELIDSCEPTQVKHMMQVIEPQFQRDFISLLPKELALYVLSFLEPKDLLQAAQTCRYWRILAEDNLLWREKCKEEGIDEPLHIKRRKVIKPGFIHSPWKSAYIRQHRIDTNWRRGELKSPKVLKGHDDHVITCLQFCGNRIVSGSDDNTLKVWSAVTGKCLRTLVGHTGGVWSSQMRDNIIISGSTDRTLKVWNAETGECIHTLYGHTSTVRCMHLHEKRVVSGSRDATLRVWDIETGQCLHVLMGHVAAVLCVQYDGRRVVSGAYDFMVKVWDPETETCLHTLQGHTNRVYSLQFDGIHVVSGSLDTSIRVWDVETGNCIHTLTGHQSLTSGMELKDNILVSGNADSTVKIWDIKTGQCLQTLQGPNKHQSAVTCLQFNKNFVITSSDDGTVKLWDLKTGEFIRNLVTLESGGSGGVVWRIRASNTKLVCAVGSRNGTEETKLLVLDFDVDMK
T1 sequence (P63208 2-163 partner): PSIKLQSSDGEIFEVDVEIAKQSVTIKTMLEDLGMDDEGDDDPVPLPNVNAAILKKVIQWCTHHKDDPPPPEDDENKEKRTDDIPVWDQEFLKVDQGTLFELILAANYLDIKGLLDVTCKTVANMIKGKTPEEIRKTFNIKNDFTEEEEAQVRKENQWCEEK
Outline: (§1)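 Dose-response in triplicate, 10 points in 3-fold steps with a top concentration near 87 μM. Each counterscreen lacks one partner (FBW7^ARG alone or pCycE alone), giving signal not due to the binding pair. Activity is % activation versus WT-FBW7+pCycE; positive threshold 10%.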

FBW7^ARG+pCycE = molecular target: T2, FBW7^ARG+pCycE (Homo sapiens, UniProt Q969H0, R505L); experiment: FBW7^ARG-cyclin E agonist ALPHAscreen (primary PRUN, confirmation CRUN1, dose-response DRUN); settings: for EC50 / Emax: DRUN dose-response; for Emax: relative to WT-FBW7+pCycE, read-out: FBW7 ACT Averaged Max % Response
T2 construct: GST (TEV site and flexible linker) (N, cleaved yes); made in house; host or cells: SF9 insect cells (baculovirus)
T2 sequence (Q969H0 64-707 R505L): as the sequence (Q969H0 64-707 R505L) above
T2 sequence (P63208 2-163 partner): as the sequence (P63208 2-163 partner) above
Outline: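 Compounds tested once at 26.1 μM (primary; confirmation in triplicate) or in a triplicate 10-point 3-fold dilution up to ~87 μM (dose-response). Bridging of 25 nM mutant FBW7 R505L to 25 nM biotinylated phosphorylated cyclin E peptide detected by Ni-acceptor/streptavidin-donor ALPHA signal, normalized to WT-FBW7+pCycE.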

pCycE alone = experiment: Counterscreen 2 ALPHAscreen with cyclin E phosphopeptide alone (CSRUN2/DCSRUN2); settings: for CyCEP ACT DCSRUN2 Averaged Max % Response: activation relative to WT-FBW7+pCycE, averaged maximum; for EC50: dose-response, triplicate, 10 point 3-fold dilutional series, read-out: CyCEP ACT DCSRUN2 Final EC50
Outline: as §1

[1] = raw curve fit, read-out: RLFBW7 ACT DCSRUN1 EC50 Curve Fit Raw
[2] = read-out: RLFBW7 ACT DCSRUN1 Final EC50
[3] = raw curve fit, read-out: FBW7 ACT EC50 Curve Fit Raw, Molar
[4] = triplicate, 10 point 3-fold dilution, max approx. 87 μM, read-out: FBW7 ACT Final EC50, Molar
[5] = confirmation assay, triplicate, single concentration 26.1 μM, read-out: FBW7 ACT CRUN1 Avg % Response and Stdev
[6] = primary screen, 1536-well, 26.1 μM, FBW7^ARG + pCycE degron peptide, high control wt-FBW7+pCycE, read-out: FBW7 ACT PRUN % Response

Row | EC50 (FBW7^ARG (RLFBW7) alone; [1]) [µM] | Emax (FBW7^ARG (RLFBW7) alone) [%] | EC50 (FBW7^ARG (RLFBW7) alone; [2]) [µM] | EC50 (FBW7^ARG+pCycE; [3]) [µM] | Emax (FBW7^ARG+pCycE) [%] | EC50 (FBW7^ARG+pCycE; [4]) [µM] | activation at 26.1 µM (FBW7^ARG+pCycE; [5]) [%] | activation at 26.1 µM (FBW7^ARG+pCycE; [6]) [%] | SMILES | CyCEP ACT DCSRUN2 Averaged Max % Response (pCycE alone) [%] | EC50 (pCycE alone) [µM]
1 | 14.5 | 1.86 | > 42.9 | 14.3 | 9.7 | > 42.9 | 6.29 ± 0.67 | 2.42 | COc1ccc(C2CC(=O)C3=C(C2)NC(C)=C(C(=O)OC(C)C)C3c2ccccc2OC(C)C)cc1 (centres unmarked) [SR-01000422384-1] | 0.09 | > 42.9
2 | 0.689 | 3 | > 51.3 | 30.4 | 8.49 | > 51.3 | 5.36 ± 0.53 | 3.41 | COCCOC(=O)C1=C(C)NC2=C(C(=O)CC(c3ccccc3)C2)C1c1ccc(OCc2ccccc2)cc1 (centres unmarked) [SR-01000422392-1] | −57.8E−3 | > 51.3
3 | 24.1 | 4.29 | > 45.8 | 16 | 9.85 | > 45.8 | 6.44 ± 0.56 | 1.86 | CCC(C)OC(=O)C1=C(C)NC2=C(C(=O)CC(c3ccc(Cl)cc3)C2)C1c1cccc(Cl)c1 (centres unmarked) [SR-01000422821-1] | 0.13 | > 45.8
4 | 16.4 | 4.23 | > 45.9 | 2400 | 10.3 | > 45.9 | 5.59 ± 0.74 | 2.6 | COc1ccccc1C1C(C(=O)OC2CCCC2)=C(C)NC2=C1C(=O)CC(c1ccccc1)C2 (centres unmarked) [SR-01000422836-1] | 0.14 | > 45.9
5 |  | 8.99 | > 47.6 | 15.9 | 13 | > 47.6 | 5.54 ± 0.29 | 2.18 | CCC(C)OC(=O)C1=C(C)NC2=C(C(=O)CC(c3ccccc3)C2)C1c1cccc2ccccc12 (centres unmarked) [SR-01000423185-1] | 11.24 | > 47.6

More lines, now with the values behind:

Row | SMILES | EC50 (FBW7^ARG (RLFBW7) alone; [1]) [µM] | Emax (FBW7^ARG (RLFBW7) alone) [%] | EC50 (FBW7^ARG (RLFBW7) alone; [2]) [µM] | EC50 (FBW7^ARG+pCycE; [3]) [µM] | Emax (FBW7^ARG+pCycE) [%] | EC50 (FBW7^ARG+pCycE; [4]) [µM] | activation at 26.1 µM (FBW7^ARG+pCycE; [5]) [%] | activation at 26.1 µM (FBW7^ARG+pCycE; [6]) [%] | CyCEP ACT DCSRUN2 Averaged Max % Response (pCycE alone) [%] | EC50 (pCycE alone) [µM]
6 | CC1=C(C(=O)OCCc2ccccc2)C(c2ccc(Cl)cc2Cl)C2=C(CC(C)(C)CC2=O)N1 (centres unmarked) [SR-01000419178-1] | 0.0785 | 3.8 | > 45.8 | 16.4 | 9.01 | > 45.8 | 4.54 ± 0.53 | 2.09 | 0.09 | > 45.8
7 | CC1=C(C(=O)OC2CCCCC2)C(c2ccc(F)cc2)C2=C(CC(c3ccccc3)CC2=O)N1 (centres unmarked) [SR-01000420805-1] | 20.2 | 3.33 | > 50.8 | 18.2 | 10 | > 50.8 | 6.77 ± 1.17 | 1.92 | 0.22 | > 50.8
8 | Cc1cc(OCC(=O)Nc2ccc3oc(-c4ccccc4Br)nc3c2)cc(C)c1Cl [SR-01000421466-1] |  | 0.32 | > 43.2 | 0.0412 | 8.15 | > 43.2 | 3.2 ± 0.75 | 2.01 | 0.02 | > 43.2
9 | Cc1c(NC(=O)/C(=C\c2ccccc2)NC(=O)c2ccccc2)c(=O)n(-c2ccccc2)n1C [SR-01000422225-1] | 0.619 | 0.11 | > 56.7 | 0.0401 | 6.91 | > 56.7 | 4.37 ± 0.72 | 1.87 | 0.18 | > 56.7
10 | CCSCCOC(=O)C1=C(C)NC2=C(C(=O)CCC2)C1c1ccc(Br)cc1 (centres unmarked) [SR-01000422432-1] | 24.5 | 0.86 | > 54.4 | 7.1 | 7.86 | > 54.4 | 5.2 ± 0.56 | 2.03 | 0.21 | > 54.4

From patent US20210047278A1, “E3 UBIQUITIN LIGASE AGONISTS, PHARMACEUTICAL COMPOSITIONS INCLUDING THE E3 UBIQUITIN LIGASE AGONISTS, RELATED METHODS OF USE” (FRED HUTCHINSON CANCER RESEARCH CENTER, priority 2018, published 2021)
